Measured values taken from patent publication US8871772B2, “Therapeutic methods and compounds” (Ampio Pharmaceuticals, Inc., priority 2008, dated 2014).

How the values were obtained:
Format in all cases: cell-based
AU565 cells = test: Cytotoxicity on confluent AU565 monolayers, cell titer assay
Description: (§1) To determine whether the decrease in cell titer signal caused by Cpd. 5 was due to the inhibition of proliferation or to cytotoxicity, STTG and AU565 cells were seeded at 10,000 cells/well in 96-well plates and grown until a confluent monolayer was obtained. Under these conditions, the cells should no longer proliferate. The culture medium was IMDM supplemented with 10% FBS. After the cells reached confluence, the culture medium was removed by aspiration and replaced with fresh medium containing the test compounds (see Table 2 below). The cell cultures were incubated for an additional 24 hours in the presence of the added compounds and then the cell titer signal was assayed by adding 20 μl Promega cell titer aqueous one reagent to each well. The plates were incubated at 37° C. for an additional 2 hours to allow the colorimetric assay to develop, and the OD of each well was determined in a microplate reader using a 530 nm filter. The OD of wells containing cell titer reagent in culture medium with no cells was subtracted from the OD of all experimental readings.
(§2) The % decrease of the total cell titer signal was determined using the following formula. ((Diluent OD−Experimental OD)/Diluent OD))×100. Data are presented in Table 2 as mean % decrease of cell titer signal of three separate experiments, plus or minus standard deviation. In the mean % decrease column, a positive number means a decrease in cell titer signal, while a negative number means an increase. The p values were calculated versus diluent controls.
(§3) This experiment was repeated, except using incubations of 18 hours, instead of 24 hours, in the presence of the compounds and 4 hours, instead of 2 hours, for color development.

[1] = tested on: human umbilical vein endothelial cells (HUVECs); test: Proliferation of HUVECs, Promega cell titer assay; conditions: 72 hours
Description: Assays were performed to determine the effect of Cpd. 5 on proliferation of human umbilical vein endothelial cells (HUVECs). Passage 4-5 HUVECs, human source lot number 13047 (obtained from Lonza) were put into the wells of a 96-well tissue culture plate at 1200 cells/well in 100 μl endothelial growth medium-2 (EGM-2) complete medium (obtained from Lonza). A 50 mM stock solution of Cpd. 5 was prepared in DMSO and frozen at −80° C. Aliquots of the stock solution were removed and dilutions containing from 50 μM to 300 μM Cpd. 5 were made in EGM-2 complete medium (Lonza). Controls containing equivalent amounts of DMSO to the 200 μM solution were mixed for comparative purposes. 100 μl of the resulting solutions were then added to the cells in the 96-well culture plates in triplicate and placed in a 37° C. incubator with 5% CO2 for 72 hours.
(§4) Following incubation, cell proliferation was assayed by adding 20 μl Promega cell titer aqueous one reagent to each well. Promega cell titer reagent is a solution containing a tetrazolium dye that is reduced by living cells to a formazan dye, and this reduction is proportional to the number of living cells present in the well. The plates were incubated at 37° C. for an additional 4 hours to allow the colorimetric assay to develop, and the OD of each well was determined in a microplate reader using a 530 nm filter. The OD of wells containing cell titer reagent in culture medium with no cells was subtracted from the OD of all experimental readings.
as §2, with “7” for “2”, “increase in cell titer signal.” for “increase.”

[2] = tested on: STTG grade 4 astrocytoma cell line; test: Proliferation of STTG cancer cells, Promega cell titer assay; conditions: 96 hours, negative number = increase
Description: Assays were performed to determine the effect of Cpd. 5 (synthesis described in Example 1) on proliferation of two cancer cell lines. These two cell lines were STTG grade 4 astrocytoma cell line and AU565 breast cancer cell line. Both cell lines were obtained from American Type Culture Collection, Rockville, Md. (ATCC).
To perform the assays, a 50 mM stock solution of Cpd. 5 was prepared in DMSO and frozen at −80° C. Aliquots of the stock solution were removed and 100 μM dilutions were made in Iscove's modified Dulbecco's medium (IMDM; obtained from ATCC) supplemented with 10% fetal bovine serum (FBS) and penicillin/streptomycin solution. Controls containing equivalent amounts of DMSO to the 100 μM solution were mixed for comparative purposes. 100 μl of the resulting solutions were then added to 96 well culture plates in triplicate and placed in a 37° C. incubator with 5% CO2 to warm.
At this point, cells were removed from passage flasks using trypsin and counted using trypan blue to establish cell counts/ml and viability. For all experiments, viability of cells was greater than 95%. Solutions of 4,000 cells/100 μl were prepared in the medium from above and 100 μl of the solutions were added to each well of the plates. The plates were placed back in the incubator and incubated with the compounds for 96 hours.
as §4, with “Promega cell titer reagent is a solution containing a tetrazolium dye that is reduced by living cells to a formazan dye, and this reduction is proportional to the number of living cells present in the well.” left out, “4-18” for “4”
The % decrease of the total cell titer signal was determined using the following formula. […] The p values were calculated versus diluent controls.

STTG cells = test: Cytotoxicity on confluent STTG monolayers, cell titer assay
Description: as §1, §2, §3

[3] = confluent AU565, 50 μM, 18 hours
[4] = confluent AU565, 50 μM, 24 hours

Row | SMILES | MEAN % DECREASE of cell titer signal (AU565 cells; confluent AU565, 10 μM, 18 hours) | MEAN % DECREASE of cell titer signal (AU565 cells; confluent AU565, 10 μM, 24 hours) | MEAN % DECREASE of cell titer signal (AU565 cells; [3]) | MEAN % DECREASE of cell titer signal (AU565 cells; [4]) | MEAN % DECREASE of cell titer signal (AU565 cells; confluent AU565, 100 μM, 18 hours) | MEAN % DECREASE of cell titer signal (AU565 cells; confluent AU565, 100 μM, 24 hours) | MEAN % DECREASE of cell titer signal ([1]; 25 μM) | MEAN % DECREASE of cell titer signal ([1]; 50 μM) | MEAN % DECREASE of cell titer signal ([1]; 100 μM) | MEAN % DECREASE of cell titer signal ([2]; 50 μM) | MEAN % DECREASE of cell titer signal (STTG cells; 10 μM, 18 hours) | MEAN % DECREASE of cell titer signal (STTG cells; 10 μM, 24 hours) | MEAN % DECREASE of cell titer signal (STTG cells; 50 μM, 18 hours) | MEAN % DECREASE of cell titer signal (STTG cells; 50 μM, 24 hours) | MEAN % DECREASE of cell titer signal (STTG cells; 100 μM, 18 hours) | MEAN % DECREASE of cell titer signal (STTG cells; 100 μM, 24 hours) | MEAN % DECREASE of cell titer signal ([2]; 20 μM)
1 | COC(=O)C(c1ccc(-c2ccccc2)cc1)C1NC(=O)CNC1=O (stereo not drawn) [Cpd. 5, biphenyl-4-yl-(3,6-dioxo-piperazin-2-yl)-acetic acid methyl ester] | −5.61% | −8.87% | −9.73% | −10.79% | −10.69% | −11.05% | −48.60% | −14.44% | 62.04% | 78.74% | 0.81% | −7.13% | 21.25% | −1.76% | 18.96% | −10.79% | 
2 | O=c1cc(N2CCOCC2)oc2c(-c3ccccc3)cccc12 [LY294002, reference compound] |  |  | 22.25% | 2.94% |  |  |  |  |  |  |  |  | 26.27% | 26.12% |  |  | −46.72%
